The target in assay [1] is T1, human TLR7 (Homo sapiens, UniProt Q9NYK1).
T1 construct: host or cells: HEK293 reporter cells
T1 sequence (Q9NYK1 27-1049): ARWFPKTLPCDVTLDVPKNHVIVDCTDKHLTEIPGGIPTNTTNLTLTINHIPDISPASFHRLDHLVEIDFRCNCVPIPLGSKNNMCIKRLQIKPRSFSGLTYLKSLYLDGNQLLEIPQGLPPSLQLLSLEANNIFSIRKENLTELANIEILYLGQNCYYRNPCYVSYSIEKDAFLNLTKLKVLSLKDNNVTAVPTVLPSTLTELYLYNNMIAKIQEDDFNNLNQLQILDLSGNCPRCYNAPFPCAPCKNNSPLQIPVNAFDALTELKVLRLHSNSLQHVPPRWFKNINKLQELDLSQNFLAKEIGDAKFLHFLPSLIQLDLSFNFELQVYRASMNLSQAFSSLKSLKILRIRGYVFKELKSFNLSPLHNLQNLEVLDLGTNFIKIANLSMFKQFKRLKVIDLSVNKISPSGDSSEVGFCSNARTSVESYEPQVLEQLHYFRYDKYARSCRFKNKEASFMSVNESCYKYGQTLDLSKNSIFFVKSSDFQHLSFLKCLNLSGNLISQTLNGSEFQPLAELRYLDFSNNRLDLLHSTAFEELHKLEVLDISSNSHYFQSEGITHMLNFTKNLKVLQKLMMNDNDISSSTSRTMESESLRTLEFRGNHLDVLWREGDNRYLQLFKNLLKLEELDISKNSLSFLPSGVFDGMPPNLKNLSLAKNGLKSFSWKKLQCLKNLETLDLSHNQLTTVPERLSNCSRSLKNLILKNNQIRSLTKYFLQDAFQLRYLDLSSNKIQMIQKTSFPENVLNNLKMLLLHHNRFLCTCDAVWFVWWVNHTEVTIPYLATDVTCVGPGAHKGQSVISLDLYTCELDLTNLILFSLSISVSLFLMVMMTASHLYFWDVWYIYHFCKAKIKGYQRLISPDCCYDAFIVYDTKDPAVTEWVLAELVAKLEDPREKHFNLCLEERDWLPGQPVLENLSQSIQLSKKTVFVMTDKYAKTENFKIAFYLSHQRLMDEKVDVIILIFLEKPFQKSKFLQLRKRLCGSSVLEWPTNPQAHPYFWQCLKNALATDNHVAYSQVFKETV
As to the kind of experiment: HEK293 NFKB reporter assay, human TLR7. Type of assay: cell-based. Conditions: HEK293 NFKB reporter cells expressing human TLR7; read-out: HEK293 hTLR7 EC50. Put shortly:
(§1)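 HEK293 NF-κB reporter cells expressing human TLR7 or TLR8 were seeded at 4×10^4 cells/well in HEK detection medium containing the stimulatory molecules. Reporter activity was read by absorbance at 620-655 nm.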
For orientation: A reporter such as luciferase makes a cellular process visible.

For assay [2], the target named is T2, human TLR8 (Homo sapiens, UniProt Q9NR97).
T2 construct: host or cells: HEK293 reporter cells
T2 sequence (Q9NR97 27-1041): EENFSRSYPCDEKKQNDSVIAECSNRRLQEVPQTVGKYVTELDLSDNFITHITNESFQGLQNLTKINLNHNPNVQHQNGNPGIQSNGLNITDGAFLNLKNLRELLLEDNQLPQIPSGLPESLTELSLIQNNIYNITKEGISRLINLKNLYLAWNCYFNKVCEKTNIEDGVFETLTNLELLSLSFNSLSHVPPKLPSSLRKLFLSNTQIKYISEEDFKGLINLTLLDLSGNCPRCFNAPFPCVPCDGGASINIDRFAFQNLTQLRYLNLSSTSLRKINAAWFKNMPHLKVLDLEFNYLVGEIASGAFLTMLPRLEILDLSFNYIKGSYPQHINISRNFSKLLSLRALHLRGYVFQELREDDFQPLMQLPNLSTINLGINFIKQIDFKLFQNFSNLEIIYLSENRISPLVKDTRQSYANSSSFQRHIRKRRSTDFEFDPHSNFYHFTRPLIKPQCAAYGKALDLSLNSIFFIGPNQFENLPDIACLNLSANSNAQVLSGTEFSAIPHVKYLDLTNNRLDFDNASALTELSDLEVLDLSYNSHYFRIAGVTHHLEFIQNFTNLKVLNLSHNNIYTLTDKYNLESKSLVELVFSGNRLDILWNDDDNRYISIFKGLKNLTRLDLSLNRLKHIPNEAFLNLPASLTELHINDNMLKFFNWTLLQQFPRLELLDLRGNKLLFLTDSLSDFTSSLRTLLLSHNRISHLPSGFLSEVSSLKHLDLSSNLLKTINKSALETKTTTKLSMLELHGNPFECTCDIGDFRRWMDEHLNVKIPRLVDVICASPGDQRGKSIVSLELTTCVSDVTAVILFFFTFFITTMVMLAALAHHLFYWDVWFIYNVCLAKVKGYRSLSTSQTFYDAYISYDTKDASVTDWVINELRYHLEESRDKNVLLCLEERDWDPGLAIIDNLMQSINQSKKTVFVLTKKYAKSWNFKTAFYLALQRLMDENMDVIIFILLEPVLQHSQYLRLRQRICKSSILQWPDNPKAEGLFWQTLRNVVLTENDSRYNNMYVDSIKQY
As to the kind of experiment: HEK293 NFKB reporter assay, human TLR8. The assay is classed as cell-based. Conditions: HEK293 NFKB reporter cells expressing human TLR8; read-out: HEK293 hTLR8 EC50. In outline:
as §1

Take `CCCN(OCC)C(=O)C1=Cc2sc(C#CC3CCNCC3)cc2N=C(N)C1` [TAZ-174]: the EC50 was determined as 5810 nM in assay [1] and 1640 nM in assay [2].
In the same order, the values of `CCCN(OCC)C(=O)C1=Cc2sc(C#CC3CNC3)cc2N=C(N)C1` [TAZ-193] are 3360 nM and 1520 nM.

One may read the EC50 as the midpoint of the concentration-response curve.

Values taken from patent publication US11654199B2 (BOLT BIOTHERAPEUTICS, INC., priority 2019, dated 2023).
